Laboratory results as given in article PMC7686114 (Bioorganic chemistry, 2020).

Target: human recombinant PDE5 (Homo sapiens, UniProt O76074)
Assay: PDE5 inhibition, IMAP fluorescence polarization assay
Format: biochemical
Conditions: for inhibition at 50 µM: read-out: PDE5 % inh at 50 (μM); for PDE5 inhibitory activity (in words): SAR statement vs parent compound

SMILES | inhibition at 50 µM [%] | IC50 [µM] | further results
Cc1ccc(-c2cc(C(F)(F)F)nn2-c2ccc(S(N)(=O)=O)cc2)cc1 [Celecoxib, celecoxib, reference compound] | 66.5 |  | 
CC(C)(C)C1=NN(c2ccc(C(=O)O)cc2)C(c2ccccc2F)C1 (stereo not drawn) [Compound 2, 4-(3-(tert-Butyl)-5-(2-fluorophenyl)-4,5-dihydro-1H-pyrazol-1-yl)benzoic acid] | 86.3 |  | 
CC(C)(C)C1=NN(c2ccc(C(=O)O)cc2)C(c2cccc(F)c2)C1 (stereo not drawn) [Compound 3, 4-(3-(tert-Butyl)-5-(3-fluorophenyl)-4,5-dihydro-1H-pyrazol-1-yl)benzoic acid] | 94.4 | 3.7 | 
CC(C)(C)C1=NN(c2ccc(C(=O)O)cc2)C(c2ccccc2Cl)C1 (stereo not drawn) [Compound 5, 4-(3-(tert-Butyl)-5-(2-chlorophenyl)-4,5-dihydro-1H-pyrazol-1-yl)benzoic acid] | 100 |  | 
CC(C)(C)C1=NN(c2ccc(C(=O)O)cc2)C(c2ccccc2Br)C1 (stereo not drawn) [Compound 8, 4-(5-(2-Bromophenyl)-3-(tert-butyl)-4,5-dihydro-1H-pyrazol-1-yl)benzoic acid] | 100 |  | 
CC(C)(C)C1=NN(c2ccc(C(=O)O)cc2)C(c2ccc(Cl)c(Cl)c2)C1 (stereo not drawn) [Compound 12, 4-(3-(tert-Butyl)-5-(3,4-dichlorophenyl)-4,5-dihydro-1H-pyrazol-1-yl)benzoic acid] | 100 |  | 
CC(C)(C)C1=NN(c2ccc(C(=O)O)cc2)C(c2c(Cl)cccc2Cl)C1 (stereo not drawn) [Compound 13, 4-(3-(tert-Butyl)-5-(2,6-dichlorophenyl)-4,5-dihydro-1H-pyrazol-1-yl)benzoic acid] | 99.1 | 28.8 | 
COc1ccccc1C1CC(C(C)(C)C)=NN1c1ccc(C(=O)O)cc1 (stereo not drawn) [Compound 14, 4-(3-(tert-Butyl)-5-(2-methoxyphenyl)-4,5-dihydro-1H-pyrazol-1-yl)benzoic acid] | 49.8 | > 50 | 
COc1ccc(C2CC(C(C)(C)C)=NN2c2ccc(C(=O)O)cc2)c(OC)c1 (stereo not drawn) [Compound 16, 4-(3-tert-Butyl-5-(2,4-dimethoxyphenyl)-4,5-dihydro-1H-pyrazol-1-yl)benzoic acid] | 85.8 |  | 
COc1ccc(OC)c(C2CC(C(C)(C)C)=NN2c2ccc(C(=O)O)cc2)c1 (stereo not drawn) [Compound 17, 4-(3-tert-Butyl-5-(2,5-dimethoxyphenyl)-4,5-dihydro-1H-pyrazol-1-yl)benzoic acid] | 47 | > 50 | 
CCOc1ccccc1C1CC(C(C)(C)C)=NN1c1ccc(C(=O)O)cc1 (stereo not drawn) [Compound 18, 4-(3-(tert-Butyl)-5-(2-ethoxyphenyl)-4,5-dihydro-1H-pyrazol-1-yl)benzoic acid] | 42.5 | > 50 | 
CC(C)(C)C1=NN(c2ccc(C(=O)O)cc2)C(c2cccc([N+](=O)[O-])c2)C1 (stereo not drawn) [Compound 20, 4-(3-tert-Butyl-5-(3-nitrophenyl)-4,5-dihydro-1H-pyrazol-1-yl)benzoic acid] | 87.6 | 3.2 | 
CC(C)(C)C1=NN(c2ccc(C(=O)O)cc2)C(c2ccc([N+](=O)[O-])cc2)C1 (stereo not drawn) [Compound 21, 4-(3-tert-Butyl-5-(4-nitrophenyl)-4,5-dihydro-1H-pyrazol-1-yl)benzoic acid] | 91 |  | 
CC(C)(C)C1=NN(c2ccc(C(=O)O)cc2)C(c2ccc(C#N)cc2)C1 (stereo not drawn) [Compound 23, 4-(3-tert-Butyl-5-(4-cyanophenyl)-4,5-dihydro-1H-pyrazol-1-yl)benzoic acid] | 75 | 13.8 | 
CC(C)(C)C1=NN(c2ccc(C(=O)O)cc2)C(c2ccco2)C1 (stereo not drawn) [Compound 27, 4-(3-tert-Butyl-5-(furan-2-yl)-4,5-dihydro-1H-pyrazol-1-yl)benzoic acid] | 23.6 |  | PDE5 inhibitory activity (in words): detrimental to the activity
CC(C)(C)C1=NN(c2ccc(C(=O)O)cc2)C(c2cccs2)C1 (stereo not drawn) [Compound 28, 4-(3-tert-Butyl-5-(thiophen-2-yl)-4,5-dihydro-1H-pyrazol-1-yl)benzoic acid] | 28.1 |  | PDE5 inhibitory activity (in words): detrimental to the activity
CC(C)(C)C1=NN(c2cccc(C(=O)O)c2)C(c2ccc(Cl)cc2)C1 (stereo not drawn) [Compound 29, 3-(3-tert-Butyl-5-(4-chlorophenyl)-4,5-dihydro-1H-pyrazol-1-yl)benzoic acid] | 100 |  | fold reduction in PDE5 inhibitory potency compared to compound 7 (vs compound 7 (4-COOH, 4-chlorophenyl)): 3 fold
CC(C)(C)C1=NN(c2ccccc2C(=O)O)C(c2ccc(Cl)cc2)C1 (stereo not drawn) [Compound 30, 2-(3-tert-Butyl-5-(4-chlorophenyl)-4,5-dihydro-1H-pyrazol-1-yl)benzoic acid] | 46 |  | PDE5 inhibitory activity (in words): diminished the activity

Further lines, with some results ahead:

inhibition at 50 µM [%] | IC50 [µM] | SMILES | further results
88 |  | CC(C)(C)C1=NN(c2ccc(C(=O)O)cc2)C(c2ccccc2)C1 (stereo not drawn) [Compound 1, 4-(3-tert-Butyl-5-phenyl-4,5-dihydro-1H-pyrazol-1-yl)benzoic acid] | 
80 | 7.7 | CC(C)(C)C1=NN(c2ccc(C(=O)O)cc2)C(c2ccc(F)cc2)C1 (stereo not drawn) [Compound 4, 4-(3-tert-Butyl-5-(4-fluorophenyl)-4,5-dihydro-1H-pyrazol-1-yl)benzoic acid] | 
95.7 |  | CC(C)(C)C1=NN(c2ccc(C(=O)O)cc2)C(c2cccc(Cl)c2)C1 (stereo not drawn) [Compound 6, 4-(3-(tert-Butyl)-5-(3-chlorophenyl)-4,5-dihydro-1H-pyrazol-1-yl)benzoic acid] | 
85 | 3.3 | CC(C)(C)C1=NN(c2ccc(C(=O)O)cc2)C(c2ccc(Cl)cc2)C1 (stereo not drawn) [Compound 7, 4-(3-tert-Butyl-5-(4-chlorophenyl)-4,5-dihydro-1H-pyrazol-1-yl)benzoic acid] | 
91.4 |  | CC(C)(C)C1=NN(c2ccc(C(=O)O)cc2)C(c2cccc(Br)c2)C1 (stereo not drawn) [Compound 9, 4-(5-(3-Bromophenyl)-3-(tert-butyl)-4,5-dihydro-1H-pyrazol-1-yl)benzoic acid] | 
88 | 7.2 | CC(C)(C)C1=NN(c2ccc(C(=O)O)cc2)C(c2ccc(Br)cc2)C1 (stereo not drawn) [Compound 10, 4-(5-(4-Bromophenyl)-3-tert-butyl-4,5-dihydro-1H-pyrazol-1-yl)benzoic acid] | 
95 |  | COc1ccc(C2CC(C(C)(C)C)=NN2c2ccc(C(=O)O)cc2)cc1 (stereo not drawn) [Compound 15, 4-(3-tert-Butyl-5-(4-methoxyphenyl)-4,5-dihydro-1H-pyrazol-1-yl) benzoic acid] | fold increase in PDE5 inhibitory potency compared to methyl derivative 22 (vs compound 22): 4 fold
77.1 |  | CC(C)(C)C1=NN(c2ccc(C(=O)O)cc2)C(c2ccc(O)cc2)C1 (stereo not drawn) [Compound 24, 4-(3-tert-Butyl-5-(4-hydroxyphenyl)-4,5-dihydro-1H-pyrazol-1-yl)benzoic acid] | 
100 | 35.6 | CC(C)(C)C1=NN(c2ccc(C(=O)O)cc2)C(c2ccc(-c3ccccc3)cc2)C1 (stereo not drawn) [Compound 25, 4-(5-([1,1’-Biphenyl]-4-yl)-3-(tert-butyl)-4,5-dihydro-1H-pyrazol-1-yl)benzoic acid] | 
80 | 21.8 | CC(C)(C)C1=NN(c2ccc(C(=O)O)cc2)C(c2ccc3ccccc3c2)C1 (stereo not drawn) [Compound 26, 4-(3-(tert-Butyl)-5-(naphthalen-2-yl)-4,5-dihydro-1H-pyrazol-1-yl)benzoic acid] | 
